Test results: ChEMBL document CHEMBL1201862, “PubChem BioAssay data set” (2004)
Activity calls are given as the source filed them.

Assays:
Cytochrome P450 2C19 = Cytochrome P450 2C19 (Homo sapiens, UniProt P33261); experiment: Cytochrome panel assay with activity outcomes. Panel member name: p450-cyp2c19 Compounds with AC50 equal or less than 10 uM are considered active; format: functional
Cytochrome P450 3A4 = Cytochrome P450 3A4 (Homo sapiens, UniProt P08684);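 further: CYP3A4 tested as one member of a cytochrome P450 panel screen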
Chain of Cytochrome P450 3A4 (P08684 whole entry): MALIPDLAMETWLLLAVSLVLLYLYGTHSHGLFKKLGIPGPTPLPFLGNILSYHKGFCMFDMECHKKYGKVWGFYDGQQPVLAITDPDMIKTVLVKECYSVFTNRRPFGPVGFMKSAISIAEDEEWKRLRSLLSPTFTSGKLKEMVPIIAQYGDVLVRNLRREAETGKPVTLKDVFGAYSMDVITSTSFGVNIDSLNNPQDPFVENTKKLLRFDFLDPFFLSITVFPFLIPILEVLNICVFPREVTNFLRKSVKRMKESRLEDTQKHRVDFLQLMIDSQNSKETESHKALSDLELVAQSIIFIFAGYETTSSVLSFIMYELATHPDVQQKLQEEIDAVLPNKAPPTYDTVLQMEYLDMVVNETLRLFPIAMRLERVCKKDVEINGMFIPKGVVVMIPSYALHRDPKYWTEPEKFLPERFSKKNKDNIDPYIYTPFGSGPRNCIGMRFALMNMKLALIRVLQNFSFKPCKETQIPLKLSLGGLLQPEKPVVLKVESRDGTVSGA

[1] = biological target: T1, Replicative DNA helicase DnaB (Mycobacterium tuberculosis, UniProt P9WMR3); experiment: DnaB intein splicing inhibitors, dose response, biochemical, cell-free fluorescence (AID 449749); format: functional
T1 sequence (P9WMR3 whole entry): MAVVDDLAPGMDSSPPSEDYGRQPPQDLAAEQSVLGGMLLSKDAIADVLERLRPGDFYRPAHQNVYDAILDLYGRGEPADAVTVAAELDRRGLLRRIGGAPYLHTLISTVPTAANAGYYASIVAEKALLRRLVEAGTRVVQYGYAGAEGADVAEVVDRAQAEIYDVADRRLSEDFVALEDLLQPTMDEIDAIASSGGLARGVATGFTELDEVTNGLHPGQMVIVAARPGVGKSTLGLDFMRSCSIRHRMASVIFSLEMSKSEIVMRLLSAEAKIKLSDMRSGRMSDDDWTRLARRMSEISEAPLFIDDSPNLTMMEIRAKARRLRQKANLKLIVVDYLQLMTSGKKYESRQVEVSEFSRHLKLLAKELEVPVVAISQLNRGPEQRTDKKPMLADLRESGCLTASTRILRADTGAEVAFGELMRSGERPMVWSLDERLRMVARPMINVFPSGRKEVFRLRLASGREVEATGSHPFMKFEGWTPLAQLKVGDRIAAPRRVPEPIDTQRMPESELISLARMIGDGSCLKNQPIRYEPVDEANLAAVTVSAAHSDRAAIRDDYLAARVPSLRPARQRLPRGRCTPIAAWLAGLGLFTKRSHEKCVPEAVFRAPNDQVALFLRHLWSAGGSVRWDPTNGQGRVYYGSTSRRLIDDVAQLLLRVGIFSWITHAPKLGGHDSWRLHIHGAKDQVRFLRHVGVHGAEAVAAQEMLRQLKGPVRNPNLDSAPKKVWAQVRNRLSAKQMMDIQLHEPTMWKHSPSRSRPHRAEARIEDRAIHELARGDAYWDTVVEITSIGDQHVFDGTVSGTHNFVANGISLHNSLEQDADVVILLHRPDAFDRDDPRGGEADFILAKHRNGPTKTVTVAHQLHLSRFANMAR

Protein RecA = biological target: T2, Protein RecA (Mycobacterium tuberculosis, UniProt P9WHJ3); experiment: Fluorescence Cell-Free Homogeneous Dose Retest to Identify Inhibitors of RecA-Intein Splicing Activity. [Related pubchem assays (depositor defined):AID2097, AID2223, AID489010, AID492950]; format: functional
T2 sequence (P9WHJ3 whole entry): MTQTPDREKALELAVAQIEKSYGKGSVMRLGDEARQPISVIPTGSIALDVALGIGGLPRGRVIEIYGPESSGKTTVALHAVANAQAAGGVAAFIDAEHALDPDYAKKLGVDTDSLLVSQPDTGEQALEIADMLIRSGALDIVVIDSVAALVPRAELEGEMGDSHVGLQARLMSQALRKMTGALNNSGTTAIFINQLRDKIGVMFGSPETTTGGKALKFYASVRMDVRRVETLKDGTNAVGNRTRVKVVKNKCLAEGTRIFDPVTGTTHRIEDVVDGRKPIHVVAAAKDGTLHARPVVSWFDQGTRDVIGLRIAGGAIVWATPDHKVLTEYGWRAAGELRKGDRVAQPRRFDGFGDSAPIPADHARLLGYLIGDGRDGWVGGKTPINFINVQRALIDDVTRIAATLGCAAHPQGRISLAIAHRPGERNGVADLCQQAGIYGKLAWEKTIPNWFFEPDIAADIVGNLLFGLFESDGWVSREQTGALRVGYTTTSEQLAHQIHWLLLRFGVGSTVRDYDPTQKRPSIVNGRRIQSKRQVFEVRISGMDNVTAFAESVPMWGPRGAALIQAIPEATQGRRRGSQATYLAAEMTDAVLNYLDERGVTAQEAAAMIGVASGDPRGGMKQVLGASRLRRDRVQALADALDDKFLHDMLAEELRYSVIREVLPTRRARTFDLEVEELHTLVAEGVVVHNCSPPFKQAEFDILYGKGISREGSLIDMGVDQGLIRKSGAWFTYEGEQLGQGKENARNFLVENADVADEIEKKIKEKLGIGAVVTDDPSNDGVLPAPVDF

[2] = biological target: T3, Heat shock factor protein 1 (Mus musculus, UniProt P38532); experiment: inhibition of MG132-induced HSE-luciferase signal, confirmation, cell-based, NIH3T3, luminescence, dose retest (AID 2382); format: functional;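 further: NIH3T3 fibroblasts with HSF1-driven luciferase reporter stressed by proteasome inhibitor MG132; luminescence from HSF1-driven luciferase expression after 8 hours of MG132 stress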
T3 sequence (P38532 whole entry): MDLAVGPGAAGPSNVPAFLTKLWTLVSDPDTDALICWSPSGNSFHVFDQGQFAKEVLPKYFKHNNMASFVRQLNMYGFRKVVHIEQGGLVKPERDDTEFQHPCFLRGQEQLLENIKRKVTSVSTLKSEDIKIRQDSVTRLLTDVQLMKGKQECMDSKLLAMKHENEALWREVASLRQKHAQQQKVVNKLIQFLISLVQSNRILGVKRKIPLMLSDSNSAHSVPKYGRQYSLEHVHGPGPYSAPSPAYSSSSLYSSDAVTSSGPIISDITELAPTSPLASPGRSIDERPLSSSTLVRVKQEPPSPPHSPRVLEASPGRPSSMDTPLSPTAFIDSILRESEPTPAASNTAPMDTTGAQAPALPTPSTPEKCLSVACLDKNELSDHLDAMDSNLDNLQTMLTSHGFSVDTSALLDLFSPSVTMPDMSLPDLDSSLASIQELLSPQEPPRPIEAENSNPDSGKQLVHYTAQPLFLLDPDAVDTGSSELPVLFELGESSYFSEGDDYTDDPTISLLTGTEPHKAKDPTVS

Cytochrome P450 1A2 = biological target: T4, Cytochrome P450 1A2 (Homo sapiens, UniProt P05177);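 further: PubChem cytochrome P450 panel assay, CYP1A2 panel member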
T4 sequence (P05177 whole entry): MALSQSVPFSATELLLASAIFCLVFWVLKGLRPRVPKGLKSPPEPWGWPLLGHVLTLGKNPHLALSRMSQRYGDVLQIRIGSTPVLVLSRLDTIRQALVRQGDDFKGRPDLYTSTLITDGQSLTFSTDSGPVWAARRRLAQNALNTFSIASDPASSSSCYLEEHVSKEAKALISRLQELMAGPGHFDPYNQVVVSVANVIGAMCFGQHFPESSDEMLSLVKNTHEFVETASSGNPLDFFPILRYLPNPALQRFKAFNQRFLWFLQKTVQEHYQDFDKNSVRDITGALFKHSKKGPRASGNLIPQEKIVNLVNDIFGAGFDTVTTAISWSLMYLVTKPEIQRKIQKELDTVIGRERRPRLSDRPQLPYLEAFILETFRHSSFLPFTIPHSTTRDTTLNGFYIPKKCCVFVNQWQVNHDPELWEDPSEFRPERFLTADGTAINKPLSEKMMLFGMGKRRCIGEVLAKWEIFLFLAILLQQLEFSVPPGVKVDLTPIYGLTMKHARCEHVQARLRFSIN

Chain of Cytochrome P450 2C19 (P33261 whole entry): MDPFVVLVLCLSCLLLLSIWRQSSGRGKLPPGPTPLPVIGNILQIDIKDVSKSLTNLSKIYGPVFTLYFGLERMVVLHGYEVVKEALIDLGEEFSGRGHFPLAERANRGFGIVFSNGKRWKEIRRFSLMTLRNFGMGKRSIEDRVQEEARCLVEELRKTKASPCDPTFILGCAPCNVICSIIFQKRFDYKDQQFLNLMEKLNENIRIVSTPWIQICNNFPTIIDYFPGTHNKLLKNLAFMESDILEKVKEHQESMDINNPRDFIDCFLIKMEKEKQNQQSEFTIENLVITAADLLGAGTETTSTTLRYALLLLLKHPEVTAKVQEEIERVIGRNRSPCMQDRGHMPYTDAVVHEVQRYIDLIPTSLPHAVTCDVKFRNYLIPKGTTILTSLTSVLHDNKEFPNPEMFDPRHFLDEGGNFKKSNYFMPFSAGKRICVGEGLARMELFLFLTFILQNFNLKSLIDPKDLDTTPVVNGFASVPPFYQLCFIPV

COc1ccc(-c2nc(CSCC(=O)NCC3CCCO3)c(C)o2)cc1OC (configuration not stated)
AC50 (Cytochrome P450 2C19; read-out: AC50): 31.6 µM (inconclusive) | AC50 (Cytochrome P450 3A4): 39.8 µM (inconclusive)

O=C1C(Cl)=C(N2CCCCCC2)C(=O)N1c1ccccc1
AC50 [1]: > 380 µM (inactive) | EC50 (Protein RecA): 10.3 µM (active)

COc1ccc(-c2noc(CCC(=O)Nc3ccc(C)c(C)c3)n2)cc1
EC50 [2]: > 195 µM (not active)

O=C(NC(=S)NC1C2CC3CC(C2)CC1C3)c1ccccc1 (configuration not stated)
EC50 [2]: > 195 µM (not active)

N[C@]1(C(=O)O)CCc2cc(P(=O)(O)O)ccc21
AC50 (Cytochrome P450 2C19; read-out: AC50): 15.8 µM (inconclusive) | AC50 (Cytochrome P450 1A2): 39.8 µM (inconclusive)

O=C(c1ccco1)N1CCN=C1SCc1ccccc1F
EC50 [2]: > 195 µM (not active)

CC(=O)c1c(N2CCC(C(N)=O)CC2)nc(=S)n(-c2ccccc2)c1C
AC50 (Cytochrome P450 2C19; read-out: AC50): 31.6 µM (inconclusive)

O=C(CSC(=S)N1CCOCC1)Nc1nc(-c2ccccc2)c(-c2ccccc2)o1
EC50 [2]: > 195 µM (not active)

COC1(OC)N=C(NC(=O)Nc2ccccc2)C2(C#N)C(c3ccccc3)C12C#N (configuration not stated)
AC50 (Cytochrome P450 2C19; read-out: AC50): 5.01 µM (inconclusive) | AC50 (Cytochrome P450 1A2): 39.8 µM (inconclusive)

CN1CCN(Cc2cc(=O)oc3ccc(Cl)cc23)CC1
AC50 [1]: > 380 µM (inactive) | EC50 (Protein RecA): > 380 µM (inactive)

CCOC(=O)N1CCN(C(=O)c2ccc(CS(=O)(=O)c3c(Cl)cccc3Cl)o2)CC1
EC50 [2]: > 195 µM (not active)

Cn1cc(-c2nc3cnc(N4CCOCC4)nc3n(C3CC3)c2=O)c2ccccc21
AC50 (Cytochrome P450 2C19): inconclusive | AC50 (Cytochrome P450 1A2): 3.16 µM (inconclusive) | AC50 (Cytochrome P450 3A4): 7.94 µM (inconclusive)

O=C(CN1C(=O)c2ccccc2S1(=O)=O)NCc1cccs1
EC50 [2]: > 195 µM (not active)

Cc1ccc(Cn2c(C3CCCN3c3nc(C)cs3)nc3cc(C(F)(F)F)ccc32)cc1 (configuration not stated)
EC50 [2]: > 195 µM (not active)

Fc1ccc(Oc2nc(-c3ccccc3)nnc2C(F)(F)F)cc1
AC50 [1]: 2.95 µM (active) | EC50 (Protein RecA): 2.28 µM (active)

O=C(c1cc(F)c(F)cc1Cl)N1CCN(c2ccc([N+](=O)[O-])c3ncccc23)CC1
AC50 [1]: 3.47 µM (active) | EC50 (Protein RecA): 11.8 µM (active)

CCCC[C@@H](CNC)NC[C@H](Cc1ccc(O)cc1)NCCc1ccc(OCC)cc1
EC50 [2]: > 195 µM (not active)

Cc1ccc(SC(C)C(=O)NCc2cccnc2)cc1 (configuration not stated)
AC50 (Cytochrome P450 2C19; read-out: AC50): 7.08 µM (inconclusive) | AC50 (Cytochrome P450 3A4): 1 µM (inconclusive)

COC(=O)c1cc(NC(=O)Nc2ccccc2OC)cc(C(=O)OC)c1
EC50 (Protein RecA): > 380 µM (inactive)

O=C(c1cccs1)[C@@H]1[C@@H]2C(=O)N(Cc3ccc4c(c3)OCO4)C(=O)[C@@H]2C2c3ccccc3C=CN21 (some centres not stated)
AC50 [1]: 4.09 µM (active) | EC50 (Protein RecA): 3.22 µM (active)

O=C(O)c1cccc2cc(-c3ccccc3)oc(=O)c12
EC50 [2]: > 195 µM (not active)

CCOC(=O)CSc1nc(C)cc(Oc2ccc(=O)n(C)n2)n1
EC50 [2]: 28.1 µM (active)

O=C(O)CCCNC(=O)CCCNC(=O)C(c1ccccc1)c1ccccc1
EC50 [2]: > 195 µM (not active)

COc1ccc(CNC(=O)CCCCCNC(=O)N2CCn3c2nc2ccccc23)cc1
EC50 [2]: > 195 µM (not active)

Cc1n[nH]c(O)c1C(c1cc2c(cc1Br)OCO2)c1c(C)n[nH]c1O
AC50 [1]: 0.723 µM (active) | EC50 (Protein RecA): 0.352 µM (active)

O=C(Oc1ccc(OC(=O)c2ccco2)c(S(=O)(=O)c2ccc(Br)cc2)c1)c1ccco1
AC50 (Cytochrome P450 2C19; read-out: AC50): 1.41 µM (inconclusive) | AC50 (Cytochrome P450 1A2): 2.24 µM (inconclusive) | AC50 (Cytochrome P450 3A4): 5.62 µM (inconclusive)

Cc1ccc2c(c1)c1c(n2CC(O)CN2CCOCC2)CCCC1 (configuration not stated)
EC50 [2]: > 195 µM (not active)

Cc1ccc(S(=O)(=O)N2CCN(S(C)(=O)=O)C2)cc1
EC50 [2]: > 195 µM (not active)

CCOc1cc(/C=C2\C(=O)N(CCC#N)N=C2C)ccc1OCC(N)=O
AC50 [1]: 6.01 µM (active) | EC50 (Protein RecA): 3.61 µM (active)

N#CCCn1c(=O)c(CCc2ccccc2)nc2cnc(OCc3ccccc3)nc21
AC50 (Cytochrome P450 2C19; read-out: AC50): 39.8 µM (inconclusive) | AC50 (Cytochrome P450 1A2): 12.6 µM (inconclusive) | AC50 (Cytochrome P450 3A4): 0.2 µM (inconclusive)

N#C[C@H]1[C@H](c2ccccc2)[C@](C#N)(C(=O)c2ccccc2)[C@@H]2C=Cc3ccccc3N21
AC50 [1]: > 380 µM (inactive) | EC50 (Protein RecA): 8.36 µM (active)

O=C(O)c1cccc(Cn2c(Cl)c(/C=N/Nc3ccccc3)sc2=O)c1
AC50 [1]: > 380 µM (inactive) | EC50 (Protein RecA): > 380 µM (inactive)

CCOc1cc(/C=N/NC(=O)CN2CCCCC2)ccc1OCc1ccccc1
AC50 (Cytochrome P450 2C19; read-out: AC50): 25.1 µM (inconclusive)

N#C/C(=N\O)c1nc(-c2ccccc2)cs1
AC50 (Cytochrome P450 2C19; read-out: AC50): 39.8 µM (inconclusive) | AC50 (Cytochrome P450 3A4): 15.8 µM (inconclusive)

COc1cc(/C=N/NC(=O)c2ccc(F)cc2)ccc1OC(=O)c1ccco1
AC50 [1]: 24 µM (active) | EC50 (Protein RecA): 20 µM (active)

COc1ccc(-c2cc(C(=O)NCc3cccnc3)no2)cc1OC
AC50 (Cytochrome P450 2C19; read-out: AC50): 28.2 µM (inconclusive)
